Source: patent US7645762B2, “Substituted pyrazolo[1,5-a] pyrimidines as protein kinase inhibitors” (Schering Corporation, priority 2005, dated 2010)
pIC50: −log10 of the molar value.

Target: T1, CDK2 (Homo sapiens, UniProt P24941)
T1 construct: The expressed protein was approximately 34 kDa in size; made in house; host or cells: SF9 insect cells (baculovirus, pFASTBAC)
Experiment: CDK2 in vitro kinase assay (SPA, 33P-ATP, biotinylated Histone H1 peptide)
Assay type: biochemical
Conditions: recombinant cyclin A or E-dependent CDK2 from baculovirus/SF9 cells; 1 hour at room temperature; 8 point dilutions in duplicate

Row | Compound | pIC50
1 | Nc1nn2c(N)cc(-c3ccccc3)nc2c1Br | 5.33
2 | Nc1cc2nc(-c3ccccc3)cc(N)n2n1 | 7.10
